Patent publication US8557844B2, “Substrate reduction therapy” (The Chancellor, Masters and Scholars of the University of …, priority 2007, dated 2013)
“Also recorded” adds a separate entry of the source.

Columns and labels:
[1] = test system: free cholesterol storage and abnormal lipid endocytosis; details: cited from earlier work
[2] = test system: RAW mouse macrophages; test: Cholesterol levels (filipin) in RAW cells treated with AY9944; format: cell-based; details: for cholesterol levels (filipin): 1 mM AY9944 in LPDS medium
Experimental: (§1) RAW mouse macrophages grown in medium supplemented with LPDS for 5 days to elevate endogenous cholesterol biosynthesis were treated with […] AY9944 in medium supplemented with lipoprotein deficient serum (LPDS) for a further 5 or 10 days to induce storage of 7-DHC. […] This correlated with abnormal transport of a fluorescent GSL analogue of lactosylceramide (LacCer)—BODIPY-LacCer.
(§2) FIG. 4 consists of micrographs which together show the induction of an NPC phenotype in cholesterol null RAW cells. All RAW cells were grown in medium supplemented with LPDS for 5 days (controls) to reduce exogenously derived cholesterol prior to addition of 1 μM AY9944 to inhibit endogenous cholesterol synthesis for a further 5 days or 10 days (as indicated). Alterations in sphingolipid trafficking were measured in live cells using BODIPY-LacCer (lower panels), cholesterol levels in fixed cells were measured with filipin (upper panels). Endocytic cholesterol storage in cholesterol depleted cells was induced by growth in medium supplemented with 10% FCS for a further 24 h. For each condition n=2, images are representative of at least 10 captured fields, scale bar=5 μm.

[3] = test system: RAW mouse macrophages; test: BODIPY-LacCer transport in RAW cells treated with AY9944; format: cell-based
Experimental: as §1, §2

[4] = target: T1, 3β-hydroxysterol Δ7-reductase (Mus musculus, UniProt O88455); details: cited from earlier work
T1 construct: RAW mouse macrophages grown in medium supplemented with LPDS for 5 days to elevate endogenous cholesterol biosynthesis; endogenous in cells; host or cells: RAW mouse macrophages
T1 sequence (O88455 1-471): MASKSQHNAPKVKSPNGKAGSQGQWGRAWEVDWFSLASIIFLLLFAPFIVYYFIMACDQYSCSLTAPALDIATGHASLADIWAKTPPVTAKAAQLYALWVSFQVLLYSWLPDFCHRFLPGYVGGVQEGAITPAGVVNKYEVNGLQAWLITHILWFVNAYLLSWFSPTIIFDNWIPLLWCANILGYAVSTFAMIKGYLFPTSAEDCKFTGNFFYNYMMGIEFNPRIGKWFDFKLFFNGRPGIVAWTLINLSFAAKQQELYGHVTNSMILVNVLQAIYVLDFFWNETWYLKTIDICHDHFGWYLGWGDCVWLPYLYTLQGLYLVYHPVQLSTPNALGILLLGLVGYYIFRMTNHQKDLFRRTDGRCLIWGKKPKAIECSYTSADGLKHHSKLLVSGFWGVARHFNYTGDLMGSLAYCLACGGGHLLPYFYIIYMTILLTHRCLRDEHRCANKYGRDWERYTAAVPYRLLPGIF

[5] = test system: GSL levels; details: mice; cited from earlier work
[6] = cited from earlier work
[7] = test system: NPC1 null (CT43) CHO cells; details: NB-DNJ treatment; cited from earlier work
[8] = test system: NPC1 null (CT43) CHO cells; details: NB-DNJ treatment; cited from earlier work; remark: listed apart in the source
[9] = test system: peripheral blood B lymphocytes; details: NPC patient, B cells over 6 months; cited from earlier work
[10] = interim data after 12 months of a 2-year trial; cited from earlier work
[11] = test system: mammalian cells; details: liposomes of dioleoylphosphatidylethanolamine and cholesteryl hemisuccinate; cited from earlier work
[12] = test system: sialyltransferase; details: cited from earlier work
[13] = target: T2, human α-1,3-fucosyltransferase V (Homo sapiens, UniProt Q11128); details: in the presence of guanosine diphosphate (GDP); cited from earlier work
T2 sequence (Q11128 1-374): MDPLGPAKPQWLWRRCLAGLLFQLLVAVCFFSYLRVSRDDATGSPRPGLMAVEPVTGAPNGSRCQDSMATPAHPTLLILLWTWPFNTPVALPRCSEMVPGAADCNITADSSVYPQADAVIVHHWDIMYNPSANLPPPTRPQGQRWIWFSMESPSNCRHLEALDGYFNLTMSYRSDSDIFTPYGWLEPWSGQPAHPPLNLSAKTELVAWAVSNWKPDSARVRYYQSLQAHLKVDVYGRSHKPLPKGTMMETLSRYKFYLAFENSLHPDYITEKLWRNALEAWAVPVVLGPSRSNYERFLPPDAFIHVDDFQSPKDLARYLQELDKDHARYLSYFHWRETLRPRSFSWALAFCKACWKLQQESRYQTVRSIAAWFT

[14] = test system: rat recombinant α-2,3-ST; details: rat recombinant enzyme; read-out: IC(50), α-2,3-ST; cited from earlier work
[15] = target: T3, rat recombinant α-2,6-ST (Rattus norvegicus, UniProt P13721); details: rat recombinant enzyme; read-out: IC(50), α-2,6-ST; cited from earlier work
T3 sequence (P13721 1-403): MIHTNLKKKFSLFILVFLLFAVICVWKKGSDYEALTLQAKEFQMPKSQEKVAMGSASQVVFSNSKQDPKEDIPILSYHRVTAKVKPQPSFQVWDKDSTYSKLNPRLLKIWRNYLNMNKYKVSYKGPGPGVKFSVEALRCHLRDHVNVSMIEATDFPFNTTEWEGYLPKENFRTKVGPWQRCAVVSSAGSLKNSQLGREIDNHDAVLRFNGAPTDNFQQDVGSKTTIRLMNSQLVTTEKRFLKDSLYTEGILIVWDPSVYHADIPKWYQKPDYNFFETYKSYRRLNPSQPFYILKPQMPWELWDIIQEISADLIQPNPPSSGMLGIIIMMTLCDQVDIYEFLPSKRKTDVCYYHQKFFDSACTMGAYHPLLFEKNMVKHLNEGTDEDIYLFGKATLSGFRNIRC

CC(C)CCC[C@@H](C)[C@H]1CC[C@H]2[C@@H]3C(=O)C=C4C[C@@H](O)CC[C@]4(C)[C@H]3CC[C@]12C [7-ketocholesterol]
free cholesterol storage and lipid endocytosis [1]: induce free cholesterol storage and abnormal lipid endocytosis

Clc1ccccc1CNCC1CCC(CNCc2ccccc2Cl)CC1 (centres unmarked) [AY9944]
cholesterol levels (filipin) ([2]; 5 days): slight decrease in cholesterol levels
cholesterol levels (filipin) ([2]; 10 days): markedly reduced
localisation of exogenously derived cholesterol ([2]; 10 day AY9944, then medium with 10% FCS): exogenously derived cholesterol became trapped in punctate LE
BODIPY-LacCer transport ([3]; 5 days post AY9944, 30 min pulse, 90 min chase): transported to the Golgi
BODIPY-LacCer transport ([3]; 10 days post AY9944): trapped in punctate LE/Lys
7-DHC level [4]: accumulation of 7-DHC

CCN(CC)CCO[C@H]1CC[C@@]2(C)C(=CC[C@@H]3[C@@H]2CC[C@]2(C)C(=O)CC[C@@H]32)C1 [Compound U18666A]
free cholesterol storage and lipid endocytosis [1]: induce free cholesterol storage and abnormal lipid endocytosis
induction of NPC1 phenotype [1]: can induce an NPC1 phenotype

CCCCN1C[C@H](O)[C@@H](O)[C@H](O)[C@H]1CO [NB-DNJ, N-butyldeoxynojirimycin]
decrease in GSL levels (onset) [5]: measurable decrease in GSL levels within a day of treatment
treatment time after which effect on GSL levels stabilizes [5]: 10 days
neurological side effects ([6]; adult mice): not to cause neurological side effects
CNS penetration ([6]; mouse, in vivo): penetrate the CNS
effects on behaviour or CNS development ([6]; mouse, in vivo): without significant effects on behaviour or CNS development
GSL storage in NPC1 cells [7]: reduction in GSL storage in the endo/lysosomal system; also recorded: lowers GSL storage in NPC1 cells to control levels
endocytosis in NPC1 cells [8]: corrects abnormal endocytosis
endosomal uptake [9]: improved endosomal uptake
lipid trafficking in peripheral blood B lymphocytes [9]: greatly improved
pathological lipid storage [9]: reduced
total late endosomal/lysosomal compartment [9]: almost normalised
clinical benefit, saccadic eye movement [10]: stabilization or improvement in saccadic eye movement
factor by which liposomes reduced the required dose [11]: 1000

C[C@@H]1O[C@@H](O[C@H]2[C@H](O[C@H]3[C@H](O[C@H]4CC[C@@]5(C)[C@@H](CC[C@]6(C)[C@@H]5CC=C5[C@@H]7CC(C)(C)C[C@@H](O)[C@]7(C)CC[C@]56C)[C@@]4(C)CO)O[C@H](C(=O)O)[C@@H](O)[C@@H]3O)O[C@H](CO)[C@H](O)[C@@H]2O)[C@H](O)[C@H](O)[C@H]1O [Soyasaponin I]
sialyltransferase inhibition [12]: potent and specific sialyltransferase inhibitor

CN(C)CCCN1c2ccccc2CCc2ccccc21 [imipramine]
free cholesterol storage and lipid endocytosis [1]: induce free cholesterol storage and abnormal lipid endocytosis

CC(=O)[C@H]1CC[C@H]2[C@@H]3CCC4=CC(=O)CC[C@]4(C)[C@H]3CC[C@]12C [progesterone]
free cholesterol storage and lipid endocytosis [1]: induce free cholesterol storage and abnormal lipid endocytosis
induction of NPC1 phenotype [1]: can induce an NPC1 phenotype

CCCO[C@H]1O[C@H](CO)[C@@H](O[C@@H]2O[C@H](CO)[C@H](O)[C@H](O)[C@H]2O)[C@H](OCCN2C(C)C(O)C(O)C(O)C2CO)[C@H]1NC(C)=O (stereo partly drawn) [propyl 2-acetamido-2-deoxy-4-O-(β-D-galactopyranosyl)-3-O-(2-(N-(β-L-homofuconojirimycinyl))ethyl)-α-D-glucopyranoside]
inhibition of human α-1,3-fucosyltransferase V [13]: effective inhibitor

cytidin-5′-yl sialylethylphosphonate
IC50 [14]: 47 µM
IC50 [15]: 340 µM
